Here are results for five molecules from patent US10689425B2, “Collagen-binding synthetic peptidoglycans, preparation, and methods of use” (Purdue Research Foundation, priority 2008, dated 2020).

For data set [1], the system named is collagen. Nature of the data set: Microplate fluorescence binding of dansyl-labelled peptide or conjugate to immobilized collagen. Particulars: collagen vs BSA and untreated wells; 100 μM to 10 nM. The method, then: Binding assays were done in a 96-well high-binding plate, black with a clear bottom (Costar). Collagen was compared to untreated wells and BSA coated wells. Collagen and BSA were immobilized at 37° C. for 1 hr by incubating 90 μL/well at concentrations of 2 mg/mL in 10 mM HCl and 1×PBS, respectively. Each well was washed 3× with 1×PBS after incubating. Z-SILY was dissolved in 1×PBS at concentrations from 100 μM to 10 nM in 10-fold dilutions. Wells were incubated for 30 min at 37° C. and rinsed 3× with PBS and then filled with 90 μL of 1×PBS. Fluorescence readings were taken on an M5 Spectramax Spectrophotometer (Molecular Devices) at excitation/emission wavelengths of 335 nm/490 nm respectively.
Binding assays were done in a 96-well high binding plate, black with a clear bottom (Costar). Collagen was compared to untreated wells and BSA coated wells. Collagen and BSA were immobilized at 37° C. for 1 hr by incubating 90 μL/well at concentrations of 2 mg/mL in 10 mM HCl and 1×PBS respectively. […]
Wells were preincubated with DS at 37° C. for 30 min to eliminate nonspecific binding of DS to collagen. […] Fluorescence readings were taken on an M5 Spectramax Spectrophotometer (Molecular Devices) at excitation/emission wavelengths of 335 nm/490 nm respectively.
The fluorescence binding assays described for DS-ZSILY was performed with peptide sequence ZSYIRIADTNITGC (ZDc13).

The subject of data set [2] is collagen. Nature of the data set: SILY binding to collagen (Biacore surface plasmon resonance). The method, then:
Biacore studies were performed on a Biacore 2000 using a CM-3 chip (Biacore, Inc., Piscataway, N.J.). The CM-3 chip is coated with covalently attached carboxymethylated dextran, which allows for attachment of the substrate collagen via free amine groups. Flow cells (FCs) 1 and 2 were used, with FC-1 as the reference cell and FC-2 as the collagen immobilized cell. Each FC was activated with EDC-NHS, and 1500RU of collagen was immobilized on FC-2 by flowing 1 mg/mL collagen in sodium acetate, pH 4, buffer at 5 μL/min for 10 min. Unreacted NHS-ester sites were capped with ethanolamine; the control FC-1 was activated and capped with ethanolamin.
To determine peptide binding affinity, SILY was dissolved in 1×HBS-EP buffer (Biacore) at varying concentrations from 100 uM to 1.5 μm in 2-fold dilutions. […] The first 10 injections were buffer injections, which help to prime the system, followed by randomized sample injections, run in triplicate. Analysis was performed using BIAevaluation software (Biacore).
(In general: In SPR one partner is held on a chip, and binding of the other changes the refractive index at the surface.)

Another data set concerns the target T1, Type I collagen gels (Bos taurus, UniProt P02453+P02465).
T1 construct: purchased Inamed, Freemont, Calif; (Nutragen)
Nature of the data set: Cryo-SEM of type I collagen gels (fibril diameter, sheet distance, fibril density). Particulars: for Fibril diameter: Example 29, images at 20,000×, α=0.05. How it is done: (§1) Gels were made with Nutragen collagen (Inamed, Freemont, Calif.) at a final concentration of 4 mg/mL collagen. Nutragen stock is 6.4 mg/mL in 10 mM HCl. Gel preparation was performed on ice, and fresh samples were made before each test. The collagen solution was adjusted to physiologic pH and salt concentration, by adding appropriate volumes of 10×PBS (phosphate buffered saline), 1×PBS, and 1M NaOH. For most experiments, samples of DS, decorin, DS-SILY, or DS-SYIR were added at a 10:1 collagen:sample molar ratio by a final 1×PBS addition (equal volumes across treatments) in which the test samples were dissolved at appropriate concentrations. In this way, samples are constantly kept at pH 7.4 and physiologic salt concentration. Collagen-alone samples received a 1×PBS addition with no sample dissolved. Fibrillogenesis will be induced by incubating neutralized collagen solutions at 37° C. overnight in a humidified chamber to avoid dehydration. Gel solutions with collagen:sample molar ratios of other than 10:1 were prepared similarly.
Gels for cryo-SEM were formed, as in EXAMPLE 16, directly on the SEM stage and incubated at 37° C. overnight. The stages were then secured in a cryo-holder and plunged into liquid nitrogen slush. Samples were then transferred to a Gatan Alto 2500 pre-chamber cooled to −170° C. under vacuum. A free-break surface was created with a cooled scalpel, and each sample evaporated under sublimation conditions for 20 min. The sample was coated by platinum sputter coating for 120 s. […] Fibril diameter was calculated using ImageJ software (NIH) measuring individual fibrils by hand (drawing a line across fibrils and measuring its length after properly setting the scale). There were 3 observers, 3 separate images per treatment, 10 fibrils recorded per image giving a total of 90 measurements per treatment. Sheet distance was calculated using ImageJ, again measuring by hand. […]
Using a modification of EXAMPLE 21 fibril diameters were measured by cryo-SEM. Fibril diameters from cryo-SEM images taken at 20,000× were measured using ImageJ software (NIH). At least 45 fibrils were measured for each treatment. […]
Collagen gels were formed in the presence of each additive at a 10:1 molar ratio, as described in EXAMPLE 16, directly on the SEM stage, processed, and imaged as described. Images at 10,000× were analyzed for fibril density calculations. Images were converted to 8-bit black and white, and threshold values for each image were determined using ImageJ software (NIH). […] The ratio of white to black area was calculated using MatLab software. All measurements were taken in triplicate and thresholds were determined by an observer blinded to the treatment.

Data set [3] has as its system Human aortic smooth muscle cells. Nature of the data set: Collagen remodeling: hydroxyproline content in cell medium. It counts as cell-based. Particulars: cultures up to 30 days. How it is done:
Following a method by Grassl, et al. (Grassl, et al., Journal of Biomedical Materials Research 2002, 60, (4), 607-612), which is herein incorporated in its entirety, collagen gels with or without synthetic PG mimics were formed as described in EXAMPLE 16. Human aortic smooth muscle cells (Cascade Biologics, Portland, Oreg.) were seeded within collagen gels by adding 4×10^6 cells/mL to the neutralized collagen solution prior to incubation. The cell-collagen solutions were pipetted into an 8-well Lab-Tek chamber slide and incubated in a humidified 37° C. and 5% CO2 incubator. After gelation, the cell-collagen gels will be covered with 1 mL Medium 231 as prescribed by Cascade. Every 3-4 days, the medium was removed from the samples and the hydroxyproline content measured by a standard hydroxyproline assay (Reddy, 1996).
To measure degraded collagen in the supernatant medium, the sample was lyophilized, the sample hydrolyzed in 2M NaOH at 120° C. for 20 min. After cooling, free hydroxyproline was oxidized by adding chloramine-T (Sigma) and reacting for 25 min at room temperature. Ehrlich's aldehyde reagent (Sigma) was added and allowed to react for 20 min at 65° C. and followed by reading the absorbance at 550 nm on an M-5 spectrophotometer (Molecular Devices). […] Cultures were incubated for up to 30 days and three samples of each treatment measured. […]

Data set [4] addresses T2, collagen (Bos taurus, UniProt P02453+P02465).
T2 construct: purchased Inamed, Freemont, Calif; (Nutragen)
Nature of the data set: Collagen fibrillogenesis by turbidity (absorbance at 313 nm). It counts as biochemical. Particulars: 1:1 collagen:additive molar ratio. How it is done:
as §1
Collagen fibrillogenesis was monitored by measuring turbidity related absorbance at 313 nm providing information on rate of fibrillogenesis and fibril diameter. […] A SpectraMax M5 at 37° C. was used to measure absorbance at 313 nm at 30 s intervals for 6 hours. […]

Data set [5] deals with Human coronary artery smooth muscle cells (HCA SMC). The data set is described as follows: Gel compaction by cells seeded in collagen gels. The format is cell-based. The method, then:
Human coronary artery smooth muscle cells (HCA SMC) (Cascade Biologics) were cultured in growth medium (Medium 231 supplemented with smooth muscle growth factor). Cells from passage 3 were used for all experiments. Differentiation medium (Medium 231 supplemented with 1% FBS and 1× pen/strep) was used for all experiments unless otherwise noted.
Collagen gels were prepared with each additive as described with the exception that the 1×PBS example addition was omitted to accommodate the addition of cells in media. After incubating on ice for 30 min, HCA SMCs in differentiation medium were added to the gel solutions to a final concentration of 1×10^6 cells/mL. Gels were formed in quadruplicate in 48-well non-tissue culture treated plates (Costar) for 6 hrs before adding 500 μL/well differentiation medium. Gels were freed from the well edges after 24 hrs. Medium was changed every 2-3 days and images for compaction were taken at the same time points using a Gel Doc System (Bio-Rad). The cross-sectional area of circular gels correlating to degree of compaction was determined using ImageJ software (NIH). Gels containing no cells were used as a negative control and cells in collagen gels absent additive were used as a positive control. By day 10 all gels had compacted to approximately 10% of the original gel area, and differences between additives were small.

Groups on a side chain read outwards from the residue. *: point of attachment. PDPH = heterobifunctional sulfhydryl-reactive crosslinker; Dansyl = CN(C)c1cccc2c(S(=O)(=O)*)cccc12

T1 sequence (P02453 162-1217 limits assumed): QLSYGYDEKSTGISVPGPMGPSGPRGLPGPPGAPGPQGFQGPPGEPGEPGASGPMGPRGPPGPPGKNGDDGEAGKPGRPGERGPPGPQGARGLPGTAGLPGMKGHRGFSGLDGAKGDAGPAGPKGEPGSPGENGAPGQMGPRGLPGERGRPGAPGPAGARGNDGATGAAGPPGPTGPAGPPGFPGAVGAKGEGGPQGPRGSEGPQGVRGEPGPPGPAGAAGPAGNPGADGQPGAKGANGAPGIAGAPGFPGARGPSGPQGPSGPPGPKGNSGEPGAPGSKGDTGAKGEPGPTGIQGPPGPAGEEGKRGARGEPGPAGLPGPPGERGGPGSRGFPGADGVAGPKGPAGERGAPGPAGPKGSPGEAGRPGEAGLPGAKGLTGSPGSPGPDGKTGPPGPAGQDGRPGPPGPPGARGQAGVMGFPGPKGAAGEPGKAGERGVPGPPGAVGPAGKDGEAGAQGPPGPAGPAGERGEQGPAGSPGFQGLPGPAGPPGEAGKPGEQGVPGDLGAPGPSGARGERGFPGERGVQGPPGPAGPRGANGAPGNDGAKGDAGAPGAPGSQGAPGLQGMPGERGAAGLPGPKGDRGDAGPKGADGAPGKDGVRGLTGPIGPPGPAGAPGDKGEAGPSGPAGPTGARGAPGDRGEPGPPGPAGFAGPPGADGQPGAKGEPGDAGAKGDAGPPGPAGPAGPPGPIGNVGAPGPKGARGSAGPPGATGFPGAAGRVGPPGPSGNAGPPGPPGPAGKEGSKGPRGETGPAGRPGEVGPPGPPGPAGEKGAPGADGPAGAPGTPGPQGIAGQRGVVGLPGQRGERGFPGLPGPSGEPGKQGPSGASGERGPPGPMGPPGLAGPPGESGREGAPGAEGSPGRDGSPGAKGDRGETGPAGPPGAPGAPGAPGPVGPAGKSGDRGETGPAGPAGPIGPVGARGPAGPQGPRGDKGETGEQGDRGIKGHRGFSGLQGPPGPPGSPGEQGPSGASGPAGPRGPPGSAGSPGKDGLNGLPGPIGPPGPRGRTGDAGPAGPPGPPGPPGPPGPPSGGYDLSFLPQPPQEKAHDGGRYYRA
T1 sequence (P02465 80-1117 limits assumed): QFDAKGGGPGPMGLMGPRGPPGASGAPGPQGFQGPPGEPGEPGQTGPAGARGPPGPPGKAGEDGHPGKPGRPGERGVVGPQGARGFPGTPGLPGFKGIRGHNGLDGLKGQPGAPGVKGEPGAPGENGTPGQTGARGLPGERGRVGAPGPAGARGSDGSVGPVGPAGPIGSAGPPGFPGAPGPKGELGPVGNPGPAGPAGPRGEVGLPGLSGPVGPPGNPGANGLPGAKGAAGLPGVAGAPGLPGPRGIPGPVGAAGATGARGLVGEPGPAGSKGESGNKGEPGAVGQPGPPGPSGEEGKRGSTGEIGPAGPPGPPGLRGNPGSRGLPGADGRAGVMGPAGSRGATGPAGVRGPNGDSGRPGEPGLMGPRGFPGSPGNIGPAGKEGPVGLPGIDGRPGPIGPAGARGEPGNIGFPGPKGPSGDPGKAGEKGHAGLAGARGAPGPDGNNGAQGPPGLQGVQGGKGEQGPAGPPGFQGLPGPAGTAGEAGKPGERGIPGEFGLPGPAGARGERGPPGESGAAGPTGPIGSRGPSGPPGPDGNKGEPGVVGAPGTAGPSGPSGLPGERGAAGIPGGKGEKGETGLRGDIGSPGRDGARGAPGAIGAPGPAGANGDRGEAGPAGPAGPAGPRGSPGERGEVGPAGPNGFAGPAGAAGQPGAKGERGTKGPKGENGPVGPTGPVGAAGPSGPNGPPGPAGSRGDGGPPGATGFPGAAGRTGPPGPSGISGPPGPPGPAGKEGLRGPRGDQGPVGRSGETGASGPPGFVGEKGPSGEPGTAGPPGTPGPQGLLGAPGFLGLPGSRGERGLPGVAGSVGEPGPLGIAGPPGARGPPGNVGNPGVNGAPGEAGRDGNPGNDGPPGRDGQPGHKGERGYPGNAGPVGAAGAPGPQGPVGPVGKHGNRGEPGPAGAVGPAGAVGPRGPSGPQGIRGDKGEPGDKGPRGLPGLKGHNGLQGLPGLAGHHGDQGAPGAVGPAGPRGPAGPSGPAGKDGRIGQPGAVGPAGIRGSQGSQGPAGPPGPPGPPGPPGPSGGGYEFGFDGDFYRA
T2 sequence (P02453 162-1217 limits assumed): as the sequence (P02453 162-1217 limits assumed) above
T2 sequence (P02465 80-1117 limits assumed): as the sequence (P02465 80-1117 limits assumed) above

Take “DS-Z-SILY: dermatan sulfate conjugated to dansyl-modified peptide Z-SILY (Dansyl-GRRANAALKAGELYKSILYGC([PDPH-oxidized dermatan sulfate])-NH2)”: in the data set on collagen [1], the “Specific binding to collagen-treated wells” value was “binds specifically to the collagen-treated wells over BSA and untreated wells”.

As to RRANAALKAGELYKSILYGC, the “Reversibility of binding to collagen” value in the data set with collagen [2] (association/disassociation curves, FIG. 3) is “binds reversibly with collagen”. For the same molecule, the Kd (usually the concentration at which binding is half-saturated) at collagen [2] (calculated from the on-off binding kinetics, collagen immobilized on CM-3 chip) is 1.2 µM. At Type I collagen gels (10:1 collagen:additive, images at 10,000×), the “Fibril density (ratio of fibril containing area to void space)” value is “significantly greater fibril density”. The Fibril diameter result at Type I collagen gels is listed as “decrease in fibril diameter”. In addition, the “Collagen degradation by hydroxyproline content in cell medium” value in data set [3] is listed as “greater collagen degradation compared to collagen alone”.

For SYIRIADTNITGC [Dc13, Dc13 peptide], in the data set with collagen [4], the Effect on fibrillogenesis result is “little effect on fibrillogenesis compared to collagen alone”. Besides, in the data set with Type I collagen gels, the Fibril diameter result is listed as “does not affect fibril diameter”. For the same molecule, the “Collagen degradation by hydroxyproline content in cell medium” value in data set [3] is on record as “greater collagen degradation compared to collagen alone”.

On to “DS-ZDc13: dermatan sulfate conjugate of ZSYIRIADTNITGC (ZDc13)”, for which the “Specific binding to collagen-treated wells” value in the data set with collagen [1] is listed as “binds specifically to the collagen surface in a dose-dependent manner”.

B1: Decorin: proteoglycan known to influence collagen fibrillogenesis (protein, UniProt P07585 31-359, looked up)
Decorin: DEASGIGPEVPDDRDFEPSLGPVCPFRCQCHLRVVQCSDLGLDKVPKDLPPDTTLLDLQNNKITEIKDGDFKNLKNLHALILVNNKISKVSPGAFTPLVKLERLYLSKNQLKELPEKMPKTLQELRAHENEITKVRKVTFNGLNQMIVIELGTNPLKSSGIENGAFQGMKKLSYIRIADTNITSIPQGLPPSLTELHLDGNKISRVDAASLKGLNNLAKLGLSFNSISAVDNGSLANTPHLRELHLDNNKLTRVPGGLAEHKYIQVVYLHNNNISVVGSSDFCPPGHNTKKASYSGVSLFSNPVQYWEIQPSTFRCVYVRSAIQLGNYK
As to B1, the Fibril diameter result with Type I collagen gels is “significantly decrease fibril diameter over collagen or collagen+dermatan sulfate”. Also, the “Gel compaction, statistical significance” value in data set [5] (Day 7) was “significant against all samples”; in data set [5] (Days 3 and 5), “significant relative to collagen and DS”.
